Results published in ChEMBL document CHEMBL2346580, “Design, synthesis and SAR investigation of thienosultam derivatives as ADAMTS-5 (aggrecanase-2) inhibitors” (Bioorg Med Chem Lett, 2013).

How the values were obtained:
[1] = target: 72 kDa type IV collagenase (Homo sapiens) (UniProt P08253); test: Inhibition of MMP2 (unknown origin)
[2] = target: T1, A disintegrin and metalloproteinase with thrombospondin motifs 5 (Homo sapiens) (UniProt Q9UNA0); test: Inhibition of ADAMTS5 (unknown origin) using QF-peptide containing an aggrecanase cleavage site by FRET assay
T1 sequence (whole entry): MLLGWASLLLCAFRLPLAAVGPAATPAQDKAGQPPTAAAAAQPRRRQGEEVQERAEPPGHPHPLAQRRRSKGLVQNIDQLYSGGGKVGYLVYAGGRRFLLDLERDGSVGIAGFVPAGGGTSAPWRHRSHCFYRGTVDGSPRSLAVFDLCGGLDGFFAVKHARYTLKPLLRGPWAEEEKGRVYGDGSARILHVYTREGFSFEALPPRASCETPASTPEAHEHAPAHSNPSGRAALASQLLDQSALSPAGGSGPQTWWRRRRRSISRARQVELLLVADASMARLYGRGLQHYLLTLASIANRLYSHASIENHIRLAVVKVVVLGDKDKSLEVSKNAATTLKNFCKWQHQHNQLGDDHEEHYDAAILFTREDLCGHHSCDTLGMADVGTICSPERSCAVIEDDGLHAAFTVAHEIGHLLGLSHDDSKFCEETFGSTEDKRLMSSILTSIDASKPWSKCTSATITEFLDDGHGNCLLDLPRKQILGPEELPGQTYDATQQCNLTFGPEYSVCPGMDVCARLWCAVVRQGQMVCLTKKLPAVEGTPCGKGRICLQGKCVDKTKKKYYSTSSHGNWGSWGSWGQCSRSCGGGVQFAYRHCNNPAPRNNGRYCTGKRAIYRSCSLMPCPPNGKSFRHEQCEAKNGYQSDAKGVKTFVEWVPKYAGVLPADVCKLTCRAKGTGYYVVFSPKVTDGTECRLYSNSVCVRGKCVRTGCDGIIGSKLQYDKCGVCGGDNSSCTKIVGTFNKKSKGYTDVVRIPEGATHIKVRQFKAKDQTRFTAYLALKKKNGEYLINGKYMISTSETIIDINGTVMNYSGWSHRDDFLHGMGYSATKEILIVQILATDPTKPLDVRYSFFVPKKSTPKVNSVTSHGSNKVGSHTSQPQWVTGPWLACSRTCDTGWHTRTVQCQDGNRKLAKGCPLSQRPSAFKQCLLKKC

Homo sapiens = organism: Homo sapiens; test: Selectivity ratio of inhibition of MMP2 (unknown origin) to ADAMTS5 (unknown origin)
[3] = target: Stromelysin-1 (Homo sapiens) (UniProt P08254); test: Inhibition of MMP3 (unknown origin)
[4] = target: T2, A disintegrin and metalloproteinase with thrombospondin motifs 4 (Homo sapiens) (UniProt O75173); test: Inhibition of ADAMTS4 (unknown origin)
T2 sequence (whole entry): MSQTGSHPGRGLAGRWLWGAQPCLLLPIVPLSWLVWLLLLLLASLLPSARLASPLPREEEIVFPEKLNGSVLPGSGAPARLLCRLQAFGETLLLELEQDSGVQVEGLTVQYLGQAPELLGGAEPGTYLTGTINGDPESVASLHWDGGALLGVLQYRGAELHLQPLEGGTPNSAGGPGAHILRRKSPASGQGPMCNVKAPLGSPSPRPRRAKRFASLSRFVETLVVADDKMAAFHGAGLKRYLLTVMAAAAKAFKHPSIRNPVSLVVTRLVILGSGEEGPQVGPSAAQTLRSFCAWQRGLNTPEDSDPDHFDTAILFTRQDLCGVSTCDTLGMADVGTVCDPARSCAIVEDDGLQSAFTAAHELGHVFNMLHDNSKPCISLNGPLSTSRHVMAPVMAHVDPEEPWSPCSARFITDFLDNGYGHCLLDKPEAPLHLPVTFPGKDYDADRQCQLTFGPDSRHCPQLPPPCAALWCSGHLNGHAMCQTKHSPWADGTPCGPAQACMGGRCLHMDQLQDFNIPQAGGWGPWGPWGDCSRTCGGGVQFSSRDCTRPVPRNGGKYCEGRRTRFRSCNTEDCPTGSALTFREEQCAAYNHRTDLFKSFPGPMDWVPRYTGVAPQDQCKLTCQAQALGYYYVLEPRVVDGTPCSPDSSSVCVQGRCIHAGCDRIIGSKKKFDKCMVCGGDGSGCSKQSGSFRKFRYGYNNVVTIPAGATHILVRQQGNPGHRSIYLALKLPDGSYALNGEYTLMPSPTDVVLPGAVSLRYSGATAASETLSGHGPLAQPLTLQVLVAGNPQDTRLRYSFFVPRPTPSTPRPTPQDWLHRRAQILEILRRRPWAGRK

Rattus norvegicus [5] = test: Cmax in Sprague-Dawley rat at 1 mg/kg, iv and 5 mg/kg, po; assay type: ADME, organism-based; conditions: in vivo
[6] = AUC (0 to infinity) in Sprague-Dawley rat at 1 mg/kg, iv and 5 mg/kg, po; assay type: ADME, organism-based; conditions: plasma
[7] = Half life in Sprague-Dawley rat at 1 mg/kg, iv and 5 mg/kg, po; assay type: ADME, organism-based; conditions: in vivo
[8] = Volume of distribution at steady state in Sprague-Dawley rat at 1 mg/kg, iv and 5 mg/kg, po; assay type: ADME, organism-based; conditions: in vivo, read-out: Vdss
Rattus norvegicus [9] = test: (§1) Oral bioavailability in Sprague-Dawley rat at 5 mg/kg; assay type: ADME, organism-based; conditions: in vivo
[10] = target: Matrix metalloproteinase-14 (Homo sapiens) (UniProt P50281); test: Inhibition of MMP14 (unknown origin)
[11] = Clearance in Sprague-Dawley rat at 1 mg/kg, iv and 5 mg/kg, po; assay type: ADME, organism-based; conditions: in vivo
[12] = as §1; assay type: ADME, organism-based; conditions: Sprague-Dawley, in vivo
[13] = target: T1, A disintegrin and metalloproteinase with thrombospondin motifs 5 (Homo sapiens); test: Inhibition of ADAMTS5 (unknown origin) using QF-peptide containing an aggrecanase cleavage site at 10 uM by FRET assay
[14] = target: T2, A disintegrin and metalloproteinase with thrombospondin motifs 4 (Homo sapiens); test: Inhibition of ADAMTS4 (unknown origin) at 10 uM

Chain of Stromelysin-1 (Homo sapiens) (P08254 100-477 limits assumed): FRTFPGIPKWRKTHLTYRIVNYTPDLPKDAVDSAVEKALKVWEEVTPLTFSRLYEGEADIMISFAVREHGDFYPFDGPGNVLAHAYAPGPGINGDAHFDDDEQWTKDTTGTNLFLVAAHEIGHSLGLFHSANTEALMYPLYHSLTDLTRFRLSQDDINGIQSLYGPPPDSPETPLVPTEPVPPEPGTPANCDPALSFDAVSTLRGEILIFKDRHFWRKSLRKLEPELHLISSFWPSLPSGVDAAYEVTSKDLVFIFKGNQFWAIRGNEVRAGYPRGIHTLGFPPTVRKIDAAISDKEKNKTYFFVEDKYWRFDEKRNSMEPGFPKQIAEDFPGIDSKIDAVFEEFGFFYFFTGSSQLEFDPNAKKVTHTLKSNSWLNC
Chain of 72 kDa type IV collagenase (Homo sapiens) (P08253 110-660 limits assumed): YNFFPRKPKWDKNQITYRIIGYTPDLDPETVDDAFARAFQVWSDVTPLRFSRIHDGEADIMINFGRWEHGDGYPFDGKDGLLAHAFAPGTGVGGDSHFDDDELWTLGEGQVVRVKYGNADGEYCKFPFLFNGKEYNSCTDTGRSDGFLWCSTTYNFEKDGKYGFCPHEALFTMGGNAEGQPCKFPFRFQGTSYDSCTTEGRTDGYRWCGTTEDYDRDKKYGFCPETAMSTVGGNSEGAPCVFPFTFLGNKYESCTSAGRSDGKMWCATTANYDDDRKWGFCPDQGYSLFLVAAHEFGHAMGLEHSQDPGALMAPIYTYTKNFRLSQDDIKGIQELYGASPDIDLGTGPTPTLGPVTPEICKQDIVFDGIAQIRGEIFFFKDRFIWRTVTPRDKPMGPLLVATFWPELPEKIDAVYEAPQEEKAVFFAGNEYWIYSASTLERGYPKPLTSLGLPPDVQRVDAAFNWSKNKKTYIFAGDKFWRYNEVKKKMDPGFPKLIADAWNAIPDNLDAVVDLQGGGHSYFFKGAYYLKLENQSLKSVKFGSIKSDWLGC

Row | Structure (SMILES) | INH [1] | INH [2] | Ratio (Homo sapiens) | also measured
1 | CCC(C(=O)O)N1Cc2sc(C#Cc3cc(C(F)(F)F)cc(C(F)(F)F)c3)cc2S1(=O)=O (racemic) | > 30 µM | 4.9 µM | > 6.12 | –
2 | CCC(C(=O)O)N1Cc2sc(/C=C/c3ccc(C(F)(F)F)cc3)cc2S1(=O)=O (racemic) | 2 µM | 3.2 µM | 0.63 | –
3 | CCC(C(=O)O)N1Cc2sc(C#Cc3ccc(N(C)C)cc3)cc2S1(=O)=O (racemic) | > 30 µM | 1.5 µM | > 20 | INH [3]: > 30 µM; INH [4]: > 10 µM; Cmax (Rattus norvegicus [5]): 29500 ng/mL; AUC(0-inf) [6]: 106000 ng·h/mL; half-life [7]: 2.8 h; Vd [8]: 0.34 L/kg; F (Rattus norvegicus [9]): 179%; INH [10]: > 30 µM; clearance [11]: 58.3 mL/min/kg
4 | CCC(C(=O)O)N1Cc2sc(C#Cc3ccccn3)cc2S1(=O)=O (racemic) | > 30 µM | 9.3 µM | > 3.23 | –
5 | CCC(C(=O)O)N1Cc2sc(N3CCN(c4ccccc4)CC3)cc2S1(=O)=O (racemic) | > 30 µM | – | – | inhibition [13]: 9%
6 | CCC(C(=O)O)N1Cc2sc(C#CCC3CCCCC3)cc2S1(=O)=O (racemic) | > 30 µM | 8.9 µM | > 3.37 | –
7 | CCC(C(=O)NO)N1Cc2sc(-c3ccccc3)cc2S1(=O)=O (racemic) | 0.03 µM | 2.1 µM | – | INH [3]: 5.1 µM; INH [4]: 1.1 µM; INH [10]: 1.2 µM
8 | CC(C)[C@H](NS(=O)(=O)c1ccc(-c2ccccc2)cc1)C(=O)O | 0.04 µM | 8.2 µM | – | INH [3]: 0.038 µM; INH [4]: 3 µM
9 | CCC(C(=O)O)N1Cc2sc(-c3ccccc3)cc2S1(=O)=O (racemic) | 16 µM | – | – | INH [3]: 12 µM; INH [10]: > 30 µM; inhibition [13]: 3%; inhibition [14]: 1.7%
10 | CCC(C(=O)O)N1Cc2sc(-c3ccn(C#Cc4ccccc4)n3)cc2S1(=O)=O (racemic) | > 30 µM | 4 µM | > 7.5 | –

Further lines, with some results ahead:

Row | INH [1] | INH [2] | Ratio (Homo sapiens) | Structure (SMILES) | also measured
11 | > 30 µM | 1 µM | > 30 | CCC(C(=O)O)N1Cc2sc(-c3ccc(-c4ccc(N(C)Cc5ccccc5)nc4)cc3)cc2S1(=O)=O (racemic) | –
12 | > 30 µM | 2.3 µM | > 13 | CCC(C(=O)O)N1Cc2sc(-c3ccc(-c4ccsc4)cc3)cc2S1(=O)=O (racemic) | –
13 | 3.9 µM | 1.4 µM | 2.79 | CCC(C(=O)O)N1Cc2sc(-c3ccc(/C=C/c4ccccc4)cc3)cc2S1(=O)=O (racemic) | –
14 | > 30 µM | 0.4 µM | > 75 | CCC(C(=O)O)N1Cc2sc(-c3ccc(-c4cnn(Cc5ccccc5)c4)cc3)cc2S1(=O)=O (racemic) | INH [3]: > 30 µM; INH [4]: 8 µM; Cmax (Rattus norvegicus [5]): 3090 ng/mL; AUC(0-inf) [6]: 4730 ng·h/mL; half-life [7]: 1.8 h; Vd [8]: 0.33 L/kg; bioavailability [12]: 47%; INH [10]: > 30 µM; clearance [11]: 278 mL/min/kg
15 | > 30 µM | > 10 µM | – | CCC(C(=O)O)N1Cc2sc(-c3ccc(-c4cnn(C)c4)cc3)cc2S1(=O)=O (racemic) | –
16 | 16.5 µM | 1 µM | 16.5 | CCC(C(=O)O)N1Cc2sc(-c3ccc(-c4ccc5ccn(C)c5c4)cc3)cc2S1(=O)=O (racemic) | –
17 | > 30 µM | > 10 µM | – | CCC(C(=O)O)N1Cc2sc(-c3ccc(-c4cccnc4)cc3)cc2S1(=O)=O (racemic) | –
18 | > 30 µM | – | – | CCC(C(=O)O)N1Cc2sc(-c3ccn(Cc4ccccc4)n3)cc2S1(=O)=O (racemic) | inhibition [13]: 43.2%
19 | > 30 µM | 7 µM | > 4.5 | CCC(C(=O)O)N1Cc2sc(-c3ccc(-c4ccc(N(C)C)nc4)cc3)cc2S1(=O)=O (racemic) | –
20 | > 30 µM | 1.5 µM | > 20 | CCC(C(=O)O)N1Cc2sc(C#Cc3ccc(-c4ccccc4)cc3)cc2S1(=O)=O (racemic) | –
21 | > 30 µM | 1.3 µM | > 23 | CCC(C(=O)O)N1Cc2sc(-c3ccc(-c4cccs4)cc3)cc2S1(=O)=O (racemic) | –
22 | 0.3 µM | – | – | CCC(C(=O)NO)N1Cc2sc(-c3ccc(-c4ccccc4)cc3)cc2S1(=O)=O (racemic) | INH [3]: 20 µM; INH [10]: < 30 µM; inhibition [13]: 3%; inhibition [14]: 1.7%
23 | 1.8 µM | 2.1 µM | 0.78 | CCC(C(=O)O)N1Cc2sc(-c3ccc(-c4ccccc4)cc3)cc2S1(=O)=O (racemic) | INH [3]: 1.2 µM; INH [4]: 1.1 µM; INH [10]: < 5.1 µM; inhibition [14]: 1.6%
24 | 4 µM | 0.3 µM | 13.3 | CCC(C(=O)O)N1Cc2sc(-c3ccc(-c4ccc5cnn(C)c5c4)cc3)cc2S1(=O)=O (racemic) | –
